Results on ten molecules are retold here after patent publication US7902248B2, “Oxime glucokinase activators” (Hoffmann-La Roche Inc., priority 2006, dated 2011).

This experiment has as its target T1, Recombinant human liver GK (GST-GK) (Homo sapiens, UniProt P35557).
T1 construct: made in house; host or cells: E. coli
T1 sequence (P35557 1-466 isoform P35557-2): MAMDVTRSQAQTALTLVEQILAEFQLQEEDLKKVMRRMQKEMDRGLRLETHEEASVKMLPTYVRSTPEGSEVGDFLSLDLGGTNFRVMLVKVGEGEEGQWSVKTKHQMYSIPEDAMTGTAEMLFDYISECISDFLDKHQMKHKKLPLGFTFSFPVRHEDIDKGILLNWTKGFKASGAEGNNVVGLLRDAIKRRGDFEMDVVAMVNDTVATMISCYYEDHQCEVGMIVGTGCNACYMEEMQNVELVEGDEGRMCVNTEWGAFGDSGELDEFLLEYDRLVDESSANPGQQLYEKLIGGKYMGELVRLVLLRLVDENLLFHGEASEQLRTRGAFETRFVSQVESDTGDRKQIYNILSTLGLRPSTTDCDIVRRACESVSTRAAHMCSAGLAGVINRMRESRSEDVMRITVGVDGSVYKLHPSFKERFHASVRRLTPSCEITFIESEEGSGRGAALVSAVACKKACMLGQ
Briefly: In vitro glucokinase activity assay (G6PDH-coupled NADH generation, OD 340 nm). Type of experiment: biochemical. Particulars: concentration of activator that produced a 50% increase in the activity of GK; 5 mM D-glucose, 25° C.-30° C., pH 7.1. The method, then: Glucokinase In Vitro Assay Protocol. Glucokinase (GK) was assayed by coupling the production of glucose-6-phosphate to the generation of NADH with glucose-6-phosphate dehydrogenase (G6PDH, Roche) from Leuconostoc mesenteroides as the coupling enzyme (Scheme 2).
Recombinant human liver GK was expressed in E. coli as a glutathione S-transferase fusion protein (GST-GK) [Liang et al, 1995] and was purified by chromatography over a glutathione-Sepharose 4B affinity column using the procedure provided by the manufacturer (Amersham Pharmacia Biotech, Piscataway, N.J.).
The assay was conducted at 25° C.-30° C. in a flat bottom 96-well tissue culture plate from Costar (Cambridge, Mass.) with a final incubation volume of 120 μL. The incubation reaction contained the following: 25 mM Hepes buffer (pH 7.1), 25 mM KCl, 5 mM D-glucose, 1 mM ATP, 1.8 mM NAD, 2 mM MgCl2, 1 μM sorbitol-6-phosphate, 1 mM dithiothreitol, test drug or 10% DMSO, 1.8 unit/ml G6PDH, and GK (see below). All organic reagents were >98% pure and were from Roche with the exceptions of D-glucose and Hepes which were from Sigma Chemical Co, St Louis, Mo. Test compounds were dissolved in DMSO and were added to the incubation reaction minus GST-GK in a volume of 12 μL to yield a final DMSO concentration of 10%. This mix was pre-incubated in the temperature controlled chamber of a SPECTRAmax 250 microplate spectrophotometer (Molecular Devices Corporation, Sunnyvale, Calif.) for 10 minutes to allow temperature equilibrium and then the reaction was started by the addition of 20 μL GST-GK.
After addition of enzyme, the increase in optical density (OD) at 340 nm was monitored over a 15 minute incubation period as a measure of GK activity. The GK activity in control wells (mOD/min) was compared with the activity in wells containing test GK activators (mOD/min), and the concentration of activator that produced a 50% increase in the activity of GK, i.e., the SC1.5, was calculated.
`CC(C)O/N=C(/C(=O)Nc1nc2ccccc2s1)c1ccc(S(C)(=O)=O)c(Cl)c1` [Example 7, (E)-N-Benzothiazol-2-yl-2-(3-chloro-4-methanesulfonyl-phenyl)-2-isopropoxyimino-acetamide]: the SC1.5 came to 0.79 µM.
The figure for `Cn1ccc(NC(=O)/C(=N/OC2CCCCC2)c2ccc(S(C)(=O)=O)c(Cl)c2)n1` [Example 9, (E)-2-(3-Chloro-4-methanesulfonyl-phenyl)-2-cyclohexyloxyimino-N-(1-methyl-1H-pyrazol-3-yl)-acetamide] is 12 µM; for `Cc1nsc(NC(=O)/C(=N/OC2CCCCC2)c2ccc(S(C)(=O)=O)c(Cl)c2)n1` [Example 10, (E)-2-(3-Chloro-4-methanesulfonyl-phenyl)-2-cyclohexyloxyimino-N-(3-methyl-[1,2,4]thiadiazol-5-yl)-acetamide] it is 8.4 µM; for `CS(=O)(=O)c1ccc(/C(=N\OC2CCCCC2)C(=O)Nc2ncc(C(N)=O)s2)cc1Cl` [Example 12, (E)-2-[2-(3-Chloro-4-methanesulfonyl-phenyl)-2-cyclohexyloxyimino-acetylamino]-thiazole-5-carboxylic acid amide] it is 1.1 µM.
The figure for `CS(=O)(=O)c1ccc(/C(=N\OC2CCCC2)C(=O)Nc2nc3ccccc3s2)cc1Cl` [Example 14, (E)-N-Benzothiazol-2-yl-2-(3-chloro-4-methanesulfonyl-phenyl)-2-cyclopentyloxyimino-acetamide] is 0.26 µM.
Consider `O=C(Nc1nc2ccccc2s1)/C(=N/OC1CCCC1)c1ccc(Cl)c(Cl)c1` [Example 19, (E)-N-Benzothiazol-2-yl-2-cyclopentyloxyimino-2-(3,4-dichloro-phenyl)-acetamide], for which the SC1.5 was 29 µM.
For `CS(=O)(=O)c1ccc(/C(=N\OC2CCCC2)C(=O)Nc2nc3ccc(Cl)cc3s2)cc1Cl` [Example 23, (E)-N-(6-Chloro-benzothiazol-2-yl)-2-(3-chloro-4-methanesulfonyl-phenyl)-2-cyclopentyloxyimino-acetamide] the value was 2.8 µM; for `CC(C)CO/N=C(/C(=O)Nc1ccn(C)n1)c1ccc(S(C)(=O)=O)c(Cl)c1` [Example 24, (E)-2-(3-Chloro-4-methanesulfonyl-phenyl)-2-isobutoxyimino-N-(1-methyl-1H-pyrazol-3-yl)-acetamide], 5.3 µM; for `CC(C)CO/N=C(/C(=O)Nc1nc2ccccc2s1)c1ccc(S(C)(=O)=O)c(Cl)c1` [Example 25, (E)-N-Benzothiazol-2-yl-2-(3-chloro-4-methanesulfonyl-phenyl)-2-isobutoxyimino-acetamide], 1.6 µM.
Regarding `CS(=O)(=O)c1ccc(/C(=N\OC2CCCC2)C(=O)Nc2ccn(Cc3cccnc3)n2)cc1Cl` [Example 31, (E)-2-(3-Chloro-4-methanesulfonyl-phenyl)-2-cyclopentyloxyimino-N-(1-pyridin-3-ylmethyl-1H-pyrazol-3-yl)-acetamide], the SC1.5 turned out to be 0.35 µM.
